Reference: patent US4895846A, “Pharmaceutically useful dihydropyridinyldicarboxylate amides and esters incorporating arylpiperazinylalkyl moieties” (Bristol-Myers Company, priority 1987, dated 1990)
≈ marks a conversion by molar mass, not a printed value.

Legend:
[1] = system: blood platelets in platelet rich plasma; experiment: Collagen aggregation of blood platelets in platelet rich plasma; format: cell-based; conditions: Oryctolagus cuniculus; platelet rich plasma (rabbit)
[2] = system: normotensive and spontaneously hypertensive conscious rats; experiment: Oral administration to normotensive and spontaneously hypertensive conscious rats, mean arterial blood pressure; format: in vivo, rat; conditions: for maximal mean arterial blood pressure reduction: oral
Method: In vivo testing included vasodilating results in the ganglion-blocked, angiotensin-II supported rat and antihypertensive screening in either the spontaneous hypertensive rat (SHR) or DOCA salt rats. In general, vasodilating activity paralleled calcium blocking activity for members of the instant series. […] A most preferred compound, BMY 20064 [drawing 21] was administered orally to both normotensive and spontaneously hypertensive conscious rats. Doses of 1 and 10 mg/kg elicited maximal mean arterial blood pressure reductions of 25 and 53 mmHg, respectively, in the normotensive rat group and 34 and 100 mmHg, respectively, in the spontaneously hypertensive rat group.

Row | Compound | EC50 [1] [µg/mL] | onset of mean arterial blood pressure response ([2]; both groups (normotensive and SHR), oral 1 and 10 mg/kg) [min] | persistence of mean arterial blood pressure response ([2]; both groups, after the higher dose (10 mg/kg oral)) [h] | maximal mean arterial blood pressure reduction ([2]; normotensive conscious rats, 1 mg/kg) [mmHg] | maximal mean arterial blood pressure reduction ([2]; normotensive conscious rats, 10 mg/kg) [mmHg] | maximal mean arterial blood pressure reduction ([2]; spontaneously hypertensive conscious rats, 1 mg/kg) [mmHg] | maximal mean arterial blood pressure reduction ([2]; spontaneously hypertensive conscious rats, 10 mg/kg) [mmHg]
1 | COC(=O)C1=C(C)NC(C)=C(C(=O)OCCCN2CCN(c3ccccc3OC)CC2)C1c1cccc([N+](=O)[O-])c1 (stereo not drawn) [BMY 20064] | 11 (≈ 19.5 µM) | < 10 | > 4 | 25 | 53 | 34 | 100
2 | COC(=O)C1=C(C)NC(C)=C(C(=O)OC)C1c1ccccc1[N+](=O)[O-] [Nifedipine, 4-(2'-nitrophenyl)-2,6-dimethyl-3,5-dicarbomethoxy-1,4-dihydropyridine] | 176 (≈ 508 µM) |  |  |  |  |  | 
3 | COc1ccc(CCN(C)CCCC(C#N)(c2ccc(OC)c(OC)c2)C(C)C)cc1OC (stereo not drawn) [Verapamil] | 151 (≈ 332 µM) |  |  |  |  |  | 
